Results as given in patent US7572818B2, “2-pyridylethylbenzamide derivative” (Bayer Cropscience S.A., priority 2002, dated 2009).

How the values were obtained:
Pyrenophora teres = assay: In vivo test of activity on Pyrenophora teres (barley net blotch); details: 330 ppm, preventive spray 24 h before inoculation
Method: In Vivo Test of Activity on Pyrenophora teres (Barley Net Blotch)
(§1) An aqueous solution of the active material to be tested is prepared at a concentration of 2 g/l by grinding in solution 1 or solution 2:
(§2) • Water • Tween 80 diluted to 10% in water: 5 μl/mg of active material • Clay in a sufficient amount for active material+clay to equal 100 mg; Solution 2
(§3) Concentrated solution containing surfactants and adjuvants conventionally used: 200 μl/mg of active material.
(§4) The aqueous solution is diluted with water so as to obtain the desired concentration.
Barley plants of the Express variety are sown in a 50/50 pozzolan/peat substrate and maintained at 12° C. The treatment is carried out at the 1-leaf stage (10 cm) by spraying the aqueous suspension. The untreated control plants are sprayed with water.
24 hours after treatment, the plants are inoculated by spraying a solution of Pyrenophora teres spores (10 000 spores/ml) originating from a 10-day culture.
The barley plants are then maintained at 18° C. in a humid atmosphere. The effectiveness of the products is evaluated relative to the control plants after eight to fifteen days of incubation.
(§5) The effectiveness of the molecules is estimated, at 500 g/ha, 250 g/ha or 330 ppm, by the percentage of control relative to untreated plants. Under these conditions, good effectiveness is defined as more than 80% effectiveness. Average effectiveness is defined as an effectiveness between 50 and 80%. Poor effectiveness is defined as an effectiveness between 10 and 50% and zero effectiveness is defined as less than 10% effectiveness.

Alternaria brassicae = assay: In vivo test of activity on Alternaria brassicae (crucifer black spot) on radish; details: preventive spray 24 h before inoculation
Method: In Vivo Test of Activity on Alternaria brassicae (Crucifer Black Spot)
as §1, §2, §3, §4
Radishes of the Pernot variety are sown in a 50/50 pozzolan/peat substrate and maintained at 18-22° C. The treatment is carried out by spraying the aqueous suspension. The untreated control plants are sprayed with water. 24 hours after treatment, the plants are inoculated by spraying a solution of Alternaria brassicae spores (40 000 spores/ml) originating from a 12-day culture.
The radish plants are then maintained at 18-20° C. in a humid atmosphere. The effectiveness of the products is evaluated relative to the control plants after seven to eight days of incubation.
as §5

SMILES	effectiveness (percentage of control relative to untreated plants) (Pyrenophora teres)	effectiveness (percentage of control relative to untreated plants) (Alternaria brassicae; 330 ppm)	effectiveness (percentage of control relative to untreated plants) (Alternaria brassicae; 500 g/ha)
Cc1cc(F)ccc1C(=O)NCCc1ncc(C(F)(F)F)cc1Cl [Compound A-117]	good to average	good to average	–
CS(=O)(=O)c1cc(Br)ccc1C(=O)NCCc1ncc(C(F)(F)F)cc1Cl [Compound A-133]	good to average	good to average	–
CSc1ccccc1C(=O)NCCc1ncc(C(F)(F)F)cc1Cl [Compound A-167]	good to average	good to average	–
O=C(NCCc1ncc(C(F)(F)F)cc1Cl)c1ccccc1OC(F)(F)F [Compound A-89]	good to average	good to average	–
Cc1ccc(Br)c(C(=O)NCCc2ncc(C(F)(F)F)cc2Cl)c1 [Compound A-134]	good to average	good to average	–
COc1cc(Cl)ccc1C(=O)NCCc1ncc(C(F)(F)F)cc1Cl [Compound A-87]	good to average	good to average	–
Cc1ccc(C(=O)NCCc2ncc(C(F)(F)F)cc2Cl)c(C)c1 [Compound A-61]	good to average	good to average	–
O=C(NCCc1c(Cl)cc(C(F)(F)F)c[n+]1[O-])c1ccccc1C(F)(F)F [Compound B-1]	good to average	good to average	–
CSc1cc(F)ccc1C(=O)NCCc1ncc(C(F)(F)F)cc1Cl [Compound A-140]	good to average	good to average	–
COc1ccc(C(=O)NCCc2ncc(C(F)(F)F)cc2Cl)c(OC)c1 [Compound A-83]	good to average	good to average	–
O=C(NCCc1ncc(C(F)(F)F)cc1Cl)c1ccc(Cl)c(F)c1Cl [Compound A-125]	good to average	good to average	–
O=C(NCCc1ncc(C(F)(F)F)cc1Cl)c1cc(Br)ccc1I [Compound A-183]	–	good to average	–
COc1c(F)ccc(C(=O)NCCc2ncc(C(F)(F)F)cc2Cl)c1SC [Compound A-148]	–	good to average	–
COc1cc(OC)cc(C(=O)NCCc2ncc(C(F)(F)F)cc2Cl)c1 [Compound A-14]	–	–	good to average
COc1ccc(C(=O)NCCc2ncc(C(F)(F)F)cc2Cl)cc1OC [Compound A-13]	–	–	good to average
O=C(NCCc1ncc(C(F)(F)F)cc1Cl)c1ccc([N+](=O)[O-])cc1Cl [Compound A-96]	good to average	good to average	–
O=C(NCCc1ncc(C(F)(F)F)cc1Cl)c1ccc(Cl)cc1Br [Compound A-110]	–	good to average	–
CS(=O)(=O)c1cc(Cl)ccc1C(=O)NCCc1ncc(C(F)(F)F)cc1Cl [Compound A-128]	–	good to average	–
CSc1c(Br)ccc(C(=O)NCCc2ncc(C(F)(F)F)cc2Cl)c1F [Compound A-168]	–	good to average	–
O=C(NCCc1ncc(C(F)(F)F)cc1Cl)c1ccc(Cl)c(C(F)(F)F)c1 [Compound A-147]	–	good to average	–
